From US20240212786A1, “METHOD OF DISCOVERING NOVEL ANTICANCER DRUG USING CO-ESSENTIALITY NETWORK, AND AN APPARATUS THEREOF” (POSTECH RESEARCH AND BUSINESS DEVELOPMENT FOUNDATION, priority 2022, published 2024)
Where a name gives a salt, the structure may show the parent alone.

What was measured:
[1] = test system: COADREAD differential gene expression; 15 large intestine cancer cell lines; assay: Reversal gene expression (RGE) effect from CMap L1000 profiles; format: cell-based
Text: To estimate the efficacy of the drug by altering the gene expression to be a reversal of that in cancer conditions, the present inventors used the L1000 dataset from CMap[9]. From the L1000 dataset, the present inventors obtained 6,056 compounds with PubChem IDs and expression profiles for 978 genes directly measured in 15 cancer cell lines whose primary site was the large intestine: CL34, HCT116, HELA, HT115, HT29, LOVO, MDST8, NCIH508, NCIH716, RKO, SNU1040, SNUC5, SW480, SW620, and SW948. The present inventors initially computed the RGE effect between the differential gene expression of COADREAD (obtained via CREEDS[10], signature ID: dz552) and the compound's transcriptional profile using Zhang's connection score, that is, the absolute value of the anti-correlated, standardized ranked connection score. Since drugs have multiple transcriptional profiles for each cell line depending on the treatment dose and time, the present inventors calculated the max RGE effect for each cell line and used the median RGE effect across cell lines as a representative value. Finally, the performance of the network in predicting the drug's RGE effect was measured using the Spearman correlation coefficient between the TC score and the RGE effect of drugs that exist in both PanDrugs and CMap.

[2] = test system: cancer cell lines of COADREAD; conditions: median over COADREAD cancer cell lines, PRISM secondary screen data; cited from earlier work
SK-HEP-1 cells = assay: MTS cell viability assay, SK-HEP-1; format: cell-based; conditions: Homo sapiens, SK-HEP1, 72 h
Experimental: (§1) The human LIHC cell lines SNU398, SK-HEP-1, and Huh7 were obtained from the Korean Cell Line Bank (Scoul, Korea), and HepG2 cells were obtained from the American Type Culture Collection (Manassas, VA, USA). SNU398 and Huh7 were cultured in Roswell Park Memorial Institute (RPMI) 1640 medium (Welgene) supplemented with 10% fetal bovine serum (FBS, Merck), 100 IU/mL penicillin, and 100 μg/mL streptomycin (Welgene). SK-HEP-1 and HepG2 were maintained in Eagle's Minimum Essential medium (EMEM, Lonza) supplemented with 10% FBS. All cells were incubated at 37° C. in a humidified incubator with 5% CO2.
(§2) To assess cell viability, SNU398, SK-HEP-1, Huh7, and HepG2 cells were plated in 96-well plates at a density of 8×10^3 or 1×10^4 cells per well. […] After incubation for 72 h, cell viability was determined using the phenazine methosulfate (PMS)/3-(4,5-dimethylthiazol-2-yl)-5-(3-carboxymethoxyphenyl)-2-(4-sulfophenyl)-2H-tetrazolium, inner salt (MTS) assay using the Cell Titer 96 Aqueous Non-Radioactive Cell Proliferation Assay kit (Promega, Madison, WI, USA) according to the manufacturer's instructions. The absorbance at 490 nm was measured using a microplate reader (Multiskan SkyHigh Microplate Spectrophotometer, Thermo Scientific). IC50 values were calculated from dose-response curves using GraphPad Prism 9 (GraphPad Software).

SNU398 cells = assay: MTS cell viability assay, SNU398; format: cell-based; conditions: Homo sapiens, SNU-398, 72 h
Experimental: as §1, §2

Huh7 cells = assay: MTS cell viability assay, Huh7; format: cell-based; conditions: Homo sapiens, Huh-7, 72 h
Experimental: as §1, §2

HepG2 cells = assay: MTS cell viability assay, HepG2; format: cell-based; conditions: Homo sapiens, 72 h
Experimental: as §1, §2

For Cn1c(=O)c(F)c(Nc2ccc(I)cc2F)c2c(=O)n(C[C@@H](O)CO)cnc21 [TAK-733], the “rank percentile of RGE effect” value ([1]; COADREAD) is listed as 91.18%, the RGE effect ([1]; median across cell lines of max RGE effect, Zhang's connection score, COADREAD signature) is listed as 0.123 and the IC50 [2] is listed as 1.03 nM.

Compound CC(C)C[C@H](NC(=O)CNC(=O)c1cc(Cl)ccc1Cl)B1OC(=O)C(CC(=O)O)(CC(=O)O)O1 [ixazomib citrate] has an IC50 (SK-HEP-1 cells) of 270 nM, an IC50 (SNU398 cells) of 746 nM and an IC50 (Huh7 cells) of 137 nM. It also gave an IC50 (HepG2 cells) of 197 nM.
